Source: US20210369816A1, “FORMULATIONS OF ABALOPARATIDE, TRANSDERMAL PATCHES THEREOF, AND USES THEREOF” (priority 2016, published 2021)

How the values were obtained:
[1] = system: rat femur fracture model; assay: Rat femur fracture model (fracture healing); format: in vivo
From the text: Certain embodiments of the methods disclosed herein also include the use of the microprojection arrays as described herein in their various embodiments to accelerate fracture healing in a patient who has suffered one or more fractures and for which the fractures are not completely healed. Healing of bone fractures (eg long bone fractures) involves endochondral and intramembranous bone formation, which together form a callus that achieves union, stabilization, and gradual recovery of bone strength. […] Sixteen rats from each group were necropsied after 4 and 6 weeks of healing, with 12 fractured femurs per group used for micro-CT and biomechanical testing and the other 4 femurs used for micro-CT and histology.

[2] = system: ovariectomy-induced osteopenic rats and monkeys; settings: ovariectomy-induced osteopenic rats and monkeys (Doyle 2013a; Doyle 2013b; Hattersley 2013); cited from earlier work
[3] = system: treated subjects; settings: subcutaneous administration; cited from earlier work
[4] = 25 ug/kg/d sc daily, week 4, P<0.05 vs VEH

[Glu^22,25, Leu^23,28,31, Aib^29, Lys^26,30]hPTHrP(1-34)NH2 [abaloparatide]
callus stiffness, higher vs VEH (three-point bending) ([1]; 5 ug/kg/d sc daily, week 4, P<0.05 vs VEH): 60%
callus stiffness, higher vs VEH (three-point bending) ([1]; 5 ug/kg/d sc daily, week 6, P<0.05 vs VEH): 112%
callus peak load, higher vs VEH [1, 4]: 77%
callus stiffness, higher vs VEH (three-point bending) [1, 4]: 96%
callus area (histomorphometry) vs VEH ([1]; 5 and 25 ug/kg/d, week 4): significantly greater callus area
micro-CT of fracture calluses vs VEH ([1]; 5 and 25 ug/kg/d, weeks 4 and 6): significantly greater callus bone volume, bone volume fraction, and BMC
histologic scoring of cortical bridging across the fracture gap vs VEH ([1]; 5 or 25 ug/kg/d, week 4): significantly greater bridging
callus peak load vs VEH ([1]; both abaloparatide groups (5 and 25 ug/kg/d), week 6): numerically higher
bone loss [2]: complete reversal of bone loss
bone mineral density (BMD) and/or trabecular bone score (TBS) at the lumbar spine, total hip, and femoral neck [3]: improve
